Source: ChEMBL document CHEMBL4308906, “Design and synthesis of selective CYP1B1 inhibitor via dearomatization of α-naphthoflavone” (Bioorg Med Chem, 2019)

Tests used:
CYP1A1 = molecular target: T1, CYP1A1 (Homo sapiens, UniProt P04798); assay: Inhibition of human recombinant CYP1A1 using 7-ethoxyresorufin as substrate assessed as percent enzyme activity at 1 uM after 15 mins in presence of NADPH by EROD assay relative to control; assay type: ADME; design: scale not given: the % may be the effect or the level left; details: recombinant CYP1A1, probe 7-ethoxyresorufin, read-out: Activity
T1 sequence (P04798 whole entry): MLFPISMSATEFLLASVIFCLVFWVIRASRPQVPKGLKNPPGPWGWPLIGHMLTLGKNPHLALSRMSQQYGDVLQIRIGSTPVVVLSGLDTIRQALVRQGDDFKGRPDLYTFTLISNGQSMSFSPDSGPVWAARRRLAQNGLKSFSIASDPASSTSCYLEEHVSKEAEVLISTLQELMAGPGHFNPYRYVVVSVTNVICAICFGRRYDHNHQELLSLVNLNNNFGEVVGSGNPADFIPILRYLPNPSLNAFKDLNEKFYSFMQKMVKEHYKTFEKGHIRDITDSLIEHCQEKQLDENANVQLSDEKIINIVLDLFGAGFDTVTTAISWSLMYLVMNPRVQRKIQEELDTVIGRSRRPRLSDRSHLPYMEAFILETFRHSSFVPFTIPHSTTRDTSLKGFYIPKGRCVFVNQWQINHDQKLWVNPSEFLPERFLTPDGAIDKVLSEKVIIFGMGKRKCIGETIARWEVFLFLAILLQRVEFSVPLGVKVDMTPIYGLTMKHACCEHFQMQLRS

CYP1A2 = molecular target: T2, CYP1A2 (Homo sapiens, UniProt P05177); assay: Inhibition of human recombinant CYP1A2 using 7-ethoxyresorufin as substrate assessed as percent enzyme activity at 1 uM after 30 mins in presence of NADPH by EROD assay relative to control; assay type: ADME; design: scale not given: the % may be the effect or the level left; details: recombinant CYP1A2, probe 7-ethoxyresorufin, read-out: Activity
T2 sequence (P05177 whole entry): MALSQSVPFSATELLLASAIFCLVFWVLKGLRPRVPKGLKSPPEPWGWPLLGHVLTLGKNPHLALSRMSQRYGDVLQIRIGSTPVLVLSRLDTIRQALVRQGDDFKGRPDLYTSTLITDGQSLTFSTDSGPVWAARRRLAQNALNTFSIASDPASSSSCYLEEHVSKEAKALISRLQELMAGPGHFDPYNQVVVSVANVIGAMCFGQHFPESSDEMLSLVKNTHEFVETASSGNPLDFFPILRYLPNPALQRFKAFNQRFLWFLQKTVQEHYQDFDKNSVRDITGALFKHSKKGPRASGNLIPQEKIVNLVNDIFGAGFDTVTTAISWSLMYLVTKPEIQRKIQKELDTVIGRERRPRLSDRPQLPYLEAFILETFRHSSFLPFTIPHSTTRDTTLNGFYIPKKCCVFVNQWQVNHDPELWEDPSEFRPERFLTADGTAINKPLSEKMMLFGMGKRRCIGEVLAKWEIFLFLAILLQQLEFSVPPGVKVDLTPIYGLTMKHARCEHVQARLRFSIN

Cytochrome P450 1B1 [1] = molecular target: T3, Cytochrome P450 1B1 (Homo sapiens, UniProt Q16678); assay: Inhibition of human recombinant CYP1B1 using 7-ethoxyresorufin as substrate assessed as percent enzyme activity at 1 uM after 30 mins in presence of NADPH by EROD assay relative to control; design: scale not given: the % may be the effect or the level left; details: read-out: Activity
T3 sequence (Q16678 whole entry): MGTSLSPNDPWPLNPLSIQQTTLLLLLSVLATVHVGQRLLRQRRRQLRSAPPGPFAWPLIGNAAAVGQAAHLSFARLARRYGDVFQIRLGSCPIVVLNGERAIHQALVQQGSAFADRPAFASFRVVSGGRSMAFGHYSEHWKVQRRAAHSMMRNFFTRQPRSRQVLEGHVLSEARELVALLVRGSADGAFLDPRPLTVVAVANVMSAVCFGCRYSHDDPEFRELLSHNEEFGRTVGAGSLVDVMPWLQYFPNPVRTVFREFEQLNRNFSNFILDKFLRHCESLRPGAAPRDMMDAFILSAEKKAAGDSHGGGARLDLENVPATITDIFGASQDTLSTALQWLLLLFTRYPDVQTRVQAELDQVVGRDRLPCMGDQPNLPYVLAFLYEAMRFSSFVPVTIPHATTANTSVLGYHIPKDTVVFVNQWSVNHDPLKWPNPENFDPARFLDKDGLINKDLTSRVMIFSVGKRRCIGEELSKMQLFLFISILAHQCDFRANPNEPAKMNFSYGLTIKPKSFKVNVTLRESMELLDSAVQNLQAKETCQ

Cytochrome P450 1B1 [2] = molecular target: T3, Cytochrome P450 1B1; assay: Binding affinity to human C-terminal 4His-tagged CYP1B1 expressed in Escherichia coli DH5alpha assessed as spectral dissociation constant by spectrophotometric analysis; details: read-out: Ks
Homo sapiens = organism: Homo sapiens; assay: Selectivity ratio of IC50 for human recombinant CYP1A1 to IC50 for human recombinant CYP1B1
Cytochrome P450 1B1 [3] = molecular target: T3, Cytochrome P450 1B1; assay: Inhibition of human recombinant CYP1B1 using 7-ethoxyresorufin as substrate after 30 mins in presence of NADPH by EROD assay
Cytochrome P450 1A1 = molecular target: T4, Cytochrome P450 1A1 (Homo sapiens, UniProt P04798); assay: Inhibition of human recombinant CYP1A1 using 7-ethoxyresorufin as substrate after 15 mins in presence of NADPH by EROD assay; assay type: ADME
T4 sequence (P04798 whole entry): T1 sequence (P04798 whole entry)

| activity at 0.25 h, 1 µM (CYP1A1) | activity at 0.5 h, 1 µM (CYP1A2) | activity at 0.5 h, 1 µM (Cytochrome P450 1B1 [1]) | Kd (Cytochrome P450 1B1 [2]) | Ratio IC50 (Homo sapiens) | IC50 (Cytochrome P450 1B1 [3]) | IC50 (Cytochrome P450 1A1) | Structure (SMILES) |
| --- | --- | --- | --- | --- | --- | --- | --- |
| 4% | 15.9% | -0.5% |  |  |  |  | COc1ccc(-c2cc(=O)c3ccc4ccccc4c3o2)cc1 |
| 38.1% | 36.9% | 6.5% | 3.1 µM |  |  |  | O=c1cc(C2CC=CCC2)oc2c1ccc1ccccc12 (stereo not given) |
| 0% |  | -2.5% | 8.1 µM | 2.02 | 0.0661 µM | 0.134 µM | O=c1cc(C2CCCC(S)C2)oc2c1ccc1ccccc12 (mixture of isomers) |
| 11.3% | 21% | 0.9% | 7.3 µM |  |  |  | C#C[C@H]1CC[C@@H](c2cc(=O)c3ccc4ccccc4c3o2)CC1 |
| 85.9% | 92.7% | 56.9% |  |  |  |  | O=c1cc(C2CCC(CO)CC2)oc2c1ccc1ccccc12 (mixture of isomers) |
| 69.9% | 80.3% | 72.5% |  |  |  |  | CS(=O)(=O)O[C@H]1CC[C@H](c2cc(=O)c3ccc4ccccc4c3o2)CC1 |
| 78% | 73.9% | 72.9% |  |  |  |  | O=c1cc([C@@H]2CCC[C@@H](O)C2)oc2c1ccc1ccccc12 (relative stereo) |
| 61% | 34% | 83% |  |  |  |  | O=c1cc([C@H]2C[C@@H]3C=C[C@H]2C3)oc2c1ccc1ccccc12 |
| 71.3% | 106% | 54.3% |  |  |  |  | O=c1cc(-c2ccc(S)cc2)oc2c1ccc1ccccc12 |
| 43% | 0% | 74% |  |  |  |  | O=c1cc([C@H]2C[C@H]3C=C[C@@H]2C3)oc2c1ccc1ccccc12 |
| 48.3% |  | 27.9% | 124 µM |  |  |  | CC(C)C1CCC(c2cc(=O)c3ccc4ccccc4c3o2)CC1 (mixture of isomers) |
| 66.1% | 57.7% | 51.5% |  |  |  |  | CS(=O)(=O)O[C@H]1CC[C@@H](c2cc(=O)c3ccc4ccccc4c3o2)CC1 |
| 38.6% | 79.1% | 80.5% |  |  |  |  | CS(=O)(=O)O[C@H]1CCC[C@@H](c2cc(=O)c3ccc4ccccc4c3o2)C1 (relative stereo) |
| 18.7% | 56.2% | 9.8% |  |  |  |  | O=c1cc(-c2cccc(S)c2)oc2c1ccc1ccccc12 |
| 8.2% | 37.2% | 1.6% |  |  |  |  | O=c1cc(-c2cccc(O)c2)oc2c1ccc1ccccc12 |
| 84.2% | 95.4% | 89.5% |  |  |  |  | N[C@H]1CC[C@H](c2cc(=O)c3ccc4ccccc4c3o2)CC1 |
| 7.6% | -3.5% | 0.2% |  |  |  |  | Nc1cccc(-c2cc(=O)c3ccc4ccccc4c3o2)c1 |
| 31.7% | 0.5% | 4.4% |  |  |  |  | CC(=O)SC1CCCC(c2cc(=O)c3ccc4ccccc4c3o2)C1 (mixture of isomers) |
| 73.7% | 74.5% | 81.6% |  |  |  |  | N[C@H]1CC[C@@H](c2cc(=O)c3ccc4ccccc4c3o2)CC1 |

| activity at 0.25 h, 1 µM (CYP1A1) | activity at 0.5 h, 1 µM (CYP1A2) | activity at 0.5 h, 1 µM (Cytochrome P450 1B1 [1]) | Kd (Cytochrome P450 1B1 [2]) | Ratio IC50 (Homo sapiens) | IC50 (Cytochrome P450 1B1 [3]) | IC50 (Cytochrome P450 1A1) | Structure (SMILES) |
| --- | --- | --- | --- | --- | --- | --- | --- |
| 0.5% | 8.8% | 15% | 264 µM |  |  |  | C#C[C@H]1CC[C@H](c2cc(=O)c3ccc4ccccc4c3o2)CC1 |
| 10.3% | 91.9% | 12.3% |  |  |  |  | CN(C)C(=O)Sc1ccc(-c2cc(=O)c3ccc4ccccc4c3o2)cc1 |
| 3.8% | 68.7% | 2.4% |  |  |  |  | CN(C)C(=O)Sc1cccc(-c2cc(=O)c3ccc4ccccc4c3o2)c1 |
| 71.3% | 68.2% | 79.4% |  |  |  |  | O=c1cc([C@@H]2CCC[C@H](O)C2)oc2c1ccc1ccccc12 (relative stereo) |
| 2.1% | -16.3% | -1.2% |  |  |  |  | Nc1ccc(-c2cc(=O)c3ccc4ccccc4c3o2)cc1 |
| 78.1% | 96.4% | 50.1% |  |  |  |  | CS(=O)(=O)OCC1CCC(c2cc(=O)c3ccc4ccccc4c3o2)CC1 (racemic) |
| 36.1% | 42.5% | -4% |  |  | 0.0903 µM |  | [N-]=[N+]=NC1CCCC(c2cc(=O)c3ccc4ccccc4c3o2)C1 (mixture of isomers) |
| 50.2% | 63% | 23.9% | 5.7 µM |  |  |  | CC1CCC(c2cc(=O)c3ccc4ccccc4c3o2)CC1 (mixture of isomers) |
| 8.7% | 6.1% | 1.9% |  |  |  |  | COc1cccc(-c2cc(=O)c3ccc4ccccc4c3o2)c1 |
| 3.9% |  | 0.5% | 9.4 µM | 1.97 | 0.0388 µM | 0.0762 µM | O=c1cc([C@H]2CC[C@@H](S)CC2)oc2c1ccc1ccccc12 |
| 28% | 34.5% | 55.3% |  |  |  |  | O=c1cc(C2CCCC2)oc2c1ccc1ccccc12 |
| 72.7% | 76.2% | 51.3% | 62.7 µM |  |  |  | O=c1cc([C@H]2CC[C@H](O)CC2)oc2c1ccc1ccccc12 |
| 87.3% | 77.3% | 90.4% | > 1220 µM |  |  |  | O=c1cc([C@H]2CC[C@@H](O)CC2)oc2c1ccc1ccccc12 |
| 3.2% | 21.2% | -12.9% | 1.1 µM |  |  |  | O=c1cc(C2=CCCCC2)oc2c1ccc1ccccc12 |
| 3.1% | 75.4% | 2.5% |  |  |  |  | CN(C)C(=S)Oc1cccc(-c2cc(=O)c3ccc4ccccc4c3o2)c1 |
| 66.5% | 69.1% | 59.9% |  |  |  |  | CS(=O)(=O)O[C@@H]1CCC[C@@H](c2cc(=O)c3ccc4ccccc4c3o2)C1 (relative stereo) |
| 80.9% | 44.5% | 64.7% | 2.9 µM |  |  |  | NC1CCCC(c2cc(=O)c3ccc4ccccc4c3o2)C1 (mixture of isomers) |
| 53.9% | 77.8% | 89% |  |  |  |  | O=c1cc(C23CC4CC(CC(C4)C2)C3)oc2c1ccc1ccccc12 |
| 17.6% | 96.9% | 15.1% |  |  |  |  | CN(C)C(=S)Oc1ccc(-c2cc(=O)c3ccc4ccccc4c3o2)cc1 |

| Structure (SMILES) | activity at 0.25 h, 1 µM (CYP1A1) | activity at 0.5 h, 1 µM (CYP1A2) | activity at 0.5 h, 1 µM (Cytochrome P450 1B1 [1]) | Kd (Cytochrome P450 1B1 [2]) | Ratio IC50 (Homo sapiens) | IC50 (Cytochrome P450 1B1 [3]) | IC50 (Cytochrome P450 1A1) |
| --- | --- | --- | --- | --- | --- | --- | --- |
| c1c[nH]cn1 [IMIDAZOLE] |  |  |  | 1260 µM |  |  |  |
